Source: US11040962B2, “Pesticidally active pyrazole derivatives” (SYNGENTA PARTICIPATIONS AG, priority 2017, dated 2021)

Key:
Format in all cases: in vivo
[1] = test system: Spodoptera littoralis; test: Spodoptera littoralis (Egyptian cotton leaf worm) cotton leaf disc spray test; conditions: foliar, 72 h, application rate 200 ppm, L1 larvae, 3 days after infestation, vs untreated, read-out: control (at least one of mortality, anti-feedant effect, growth inhibition)
Method: Spodoptera littoralis (Egyptian Cotton Leaf Worm)
Cotton leaf discs were placed on agar in 24-well microtiter plates and sprayed with aqueous test solutions prepared from 10′000 ppm DMSO stock solutions. After drying the leaf discs were infested with five L1 larvae. The samples were assessed for mortality, anti-feedant effect, and growth inhibition in comparison to untreated samples 3 days after infestation. Control of Spodoptera littoralis by a test sample is when at least one of mortality, anti-feedant effect, and growth inhibition is higher than the untreated sample.

[2] = test system: Plutella xylostella; test: Plutella xylostella (diamond back moth) artificial diet test; conditions: 120 h, application rate 200 ppm, L2 larvae, 5 days after infestation, vs untreated, read-out: effect in at least one of the two categories (mortality or growth inhibition)
Method: Plutella xylostella (Diamond Back Moth):
24-well microtiter plates with artificial diet were treated with aqueous test solutions prepared from 10′000 ppm DMSO stock solutions by pipetting. After drying, the plates were infested with L2 larvae (10 to 15 per well). The samples were assessed for mortality and growth inhibition in comparison to untreated samples 5 days after infestation. The following compounds gave an effect of at least 80% in at least one of the two categories (mortality or growth inhibition) at an application rate of 200 ppm: 1, 2, 3, 4, 7, 8, 9, 10, 11, 12, 13, 14, 15, 16, 17, 18, 19, 20, 21, 22, 23, 24, 26, 27, 28 and 29.

[3] = test system: Diabrotica balteata; test: Diabrotica balteata (corn root worm) maize sprout spray test; conditions: 96 h, application rate 200 ppm, L2 larvae, 4 days after infestation, vs untreated, read-out: effect in at least one of the two categories (mortality or growth inhibition)
Method: Diabrotica balteata, (Corn Root Worm)
Maize sprouts, placed on an agar layer in 24-well microtiter plates were treated with aqueous test solutions prepared from 10′000 ppm DMSO stock solutions by spraying. After drying, the plates were infested with L2 larvae (6 to 10 per well). The samples were assessed for mortality and growth inhibition in comparison to untreated samples 4 days after infestation. The following compounds gave an effect of at least 80% in at least one of the two categories (mortality or growth inhibition) at an application rate of 200 ppm: 1, 2, 3, 4, 7, 8, 9, 11, 12, 13, 14, 15, 16, 17, 18, 19, 20, 21, 27, 28 and 29.

[4] = test system: Tetranychus urticae; test: Tetranychus urticae (two-spotted spider mite) bean leaf disc spray test; conditions: foliar, 192 h, application rate 200 ppm, 8 days after infestation, read-out: mortality on mixed population (mobile stages)
Method: Tetranychus urticae (Two-Spotted Spider Mite):
Bean leaf discs on agar in 24-well microtiter plates were sprayed with aqueous test solutions prepared from 10′000 ppm DMSO stock solutions. After drying the leaf discs were infested with a mite population of mixed ages. The samples were assessed for mortality on mixed population (mobile stages) 8 days after infestation.

[5] = test system: Euschistus heros; test: Euschistus heros (neotropical brown stink bug) soybean leaf spray test; conditions: 120 h, application rate 200 ppm, N2 nymphs, 5 days after infestation, vs untreated, read-out: effect in at least one of the two categories (mortality or growth inhibition)
Method: Euschistus heros (Neotropical Brown Stink Bug)
Soybean leaves on agar in 24-well microtiter plates were sprayed with aqueous test solutions prepared from 10′000 ppm DMSO stock solutions. After drying the leaves were infested with N2 nymphs. The samples were assessed for mortality and growth inhibition in comparison to untreated samples 5 days after infestation. The following compounds gave an effect of at least 80% in at least one of the two categories (mortality or growth inhibition) at an application rate of 200 ppm: 1, 2, 3, 7, 8, 9, 12, 13, 14, 15, 17, 18, 21, 25, 26, 27, 28 and 29.

[6] = test system: Thrips tabaci; test: Thrips tabaci (onion thrips) sunflower leaf disc spray test; conditions: foliar, 144 h, application rate 200 ppm, population of mixed ages, 6 days after infestation
Method: Thrips tabaci (Onion Thrips):
Sunflower leaf discs were placed on agar in 24-well microtiter plates and sprayed with aqueous test solutions prepared from 10′000 ppm DMSO stock solutions. After drying the leaf discs were infested with a Thrips population of mixed ages. The samples were assessed for mortality 6 days after infestation.

CCN(C(=O)c1cc(-c2cc(-c3c(C(F)(F)F)c(C(F)(F)C(F)(F)F)nn3C)no2)sc1C#N)C1CC1 [Compound 15, 2-cyano-N-cyclopropyl-N-ethyl-5-[3-[2-methyl-5-(1,1,2,2,2-pentafluoroethyl)-4-(trifluoromethyl)pyrazol-3-yl]isoxazol-5-yl]thiophene-3-carboxamide]
≥ 80%: percent control (mortality, anti-feedant effect or growth inhibition) at 200 ppm [1] | percent effect (mortality or growth inhibition) at 200 ppm [2] | percent effect (mortality or growth inhibition) at 200 ppm [3] | mortality at 200 ppm [4] | percent effect (mortality or growth inhibition) at 200 ppm [5] | mortality at 200 ppm [6]

Cn1nc(C(F)(F)C(F)(F)F)c(C(F)(F)F)c1-n1cc(-c2cc(C(=O)NC3CC3)c(Cl)s2)nn1 [Compound 7, 2-chloro-N-cyclopropyl-5-[1-[2-methyl-5-(1,1,2,2,2-pentafluoroethyl)-4-(trifluoromethyl)pyrazol-3-yl]triazol-4-yl]thiophene-3-carboxamide]
≥ 80%: percent control (mortality, anti-feedant effect or growth inhibition) at 200 ppm [1] | percent effect (mortality or growth inhibition) at 200 ppm [2] | percent effect (mortality or growth inhibition) at 200 ppm [3] | mortality at 200 ppm [4] | percent effect (mortality or growth inhibition) at 200 ppm [5] | mortality at 200 ppm [6]

CCN(C(=O)c1cc(-c2cc(-c3c(C(F)(F)F)c(C(F)(F)C(F)(F)F)nn3C)cs2)sc1C#N)C1CC1 [Compound 29, 2-cyano-N-cyclopropyl-N-ethyl-5-[4-[2-methyl-5-(1,1,2,2,2-pentafluoroethyl)-4-(trifluoromethyl)pyrazol-3-yl]-2-thienyl]thiophene-3-carboxamide]
≥ 80%: percent control (mortality, anti-feedant effect or growth inhibition) at 200 ppm [1] | percent effect (mortality or growth inhibition) at 200 ppm [2] | percent effect (mortality or growth inhibition) at 200 ppm [3] | mortality at 200 ppm [4] | percent effect (mortality or growth inhibition) at 200 ppm [5] | mortality at 200 ppm [6]

Cn1nc(C(F)(F)C(F)(F)F)c(C(F)(F)F)c1-n1cc(-c2cc(C(=O)NC3CC3)c(C#N)s2)nn1 [Compound 1, 2-cyano-N-cyclopropyl-5-[1-[2-methyl-5-(1,1,2,2,2-pentafluoroethyl)-4-(trifluoromethyl)pyrazol-3-yl]triazol-4-yl]thiophene-3-carboxamide]
≥ 80%: percent control (mortality, anti-feedant effect or growth inhibition) at 200 ppm [1] | percent effect (mortality or growth inhibition) at 200 ppm [2] | percent effect (mortality or growth inhibition) at 200 ppm [3] | mortality at 200 ppm [4] | percent effect (mortality or growth inhibition) at 200 ppm [5] | mortality at 200 ppm [6]

Cn1nc(C(F)(F)C(F)(F)F)c(C(F)(F)F)c1-c1cc(-c2cc(C(=O)NC3CC3)c(C#N)s2)on1 [Compound 13, 2-cyano-N-cyclopropyl-5-[3-[2-methyl-5-(1,1,2,2,2-pentafluoroethyl)-4-(trifluoromethyl)pyrazol-3-yl]isoxazol-5-yl]thiophene-3-carboxamide]
≥ 80%: percent control (mortality, anti-feedant effect or growth inhibition) at 200 ppm [1] | percent effect (mortality or growth inhibition) at 200 ppm [2] | percent effect (mortality or growth inhibition) at 200 ppm [3] | mortality at 200 ppm [4] | percent effect (mortality or growth inhibition) at 200 ppm [5] | mortality at 200 ppm [6]

CN(C(=O)c1cc(-c2cc(-c3c(C(F)(F)F)c(C(F)(F)C(F)(F)F)nn3C)no2)sc1C#N)C1CC1 [Compound 14, 2-cyano-N-cyclopropyl-N-methyl-5-[3-[2-methyl-5-(1,1,2,2,2-pentafluoroethyl)-4-(trifluoromethyl)pyrazol-3-yl]isoxazol-5-yl]thiophene-3-carboxamide]
≥ 80%: percent control (mortality, anti-feedant effect or growth inhibition) at 200 ppm [1] | percent effect (mortality or growth inhibition) at 200 ppm [2] | percent effect (mortality or growth inhibition) at 200 ppm [3] | mortality at 200 ppm [4] | percent effect (mortality or growth inhibition) at 200 ppm [5] | mortality at 200 ppm [6]

CN(C(=O)c1cc(-c2cn(-c3c(C(F)(F)F)c(C(F)(F)C(F)(F)F)nn3C)nn2)sc1C#N)C1CC1 [Compound 2, 2-cyano-N-cyclopropyl-N-methyl-5-[1-[2-methyl-5-(1,1,2,2,2-pentafluoroethyl)-4-(trifluoromethyl)pyrazol-3-yl]triazol-4-yl]thiophene-3-carboxamide]
≥ 80%: percent control (mortality, anti-feedant effect or growth inhibition) at 200 ppm [1] | percent effect (mortality or growth inhibition) at 200 ppm [2] | percent effect (mortality or growth inhibition) at 200 ppm [3] | mortality at 200 ppm [4] | percent effect (mortality or growth inhibition) at 200 ppm [5] | mortality at 200 ppm [6]

CN(C(=O)c1cc(-c2cc(-c3c(C(F)(F)F)c(C(F)(F)C(F)(F)F)nn3C)cs2)sc1C#N)C1CC1 [Compound 28, 2-cyano-N-cyclopropyl-N-methyl-5-[4-[2-methyl-5-(1,1,2,2,2-pentafluoroethyl)-4-(trifluoromethyl)pyrazol-3-yl]-2-thienyl]thiophene-3-carboxamide]
≥ 80%: percent control (mortality, anti-feedant effect or growth inhibition) at 200 ppm [1] | percent effect (mortality or growth inhibition) at 200 ppm [2] | percent effect (mortality or growth inhibition) at 200 ppm [3] | mortality at 200 ppm [4] | percent effect (mortality or growth inhibition) at 200 ppm [5] | mortality at 200 ppm [6]

CCN(C(=O)c1cc(-c2cn(-c3c(C(F)(F)F)c(C(F)(F)C(F)(F)F)nn3C)nn2)sc1C#N)C1CC1 [Compound 3, 2-cyano-N-cyclopropyl-N-ethyl-5-[1-[2-methyl-5-(1,1,2,2,2-pentafluoroethyl)-4-(trifluoromethyl)pyrazol-3-yl]triazol-4-yl]thiophene-3-carboxamide]
≥ 80%: percent control (mortality, anti-feedant effect or growth inhibition) at 200 ppm [1] | percent effect (mortality or growth inhibition) at 200 ppm [2] | percent effect (mortality or growth inhibition) at 200 ppm [3] | mortality at 200 ppm [4] | percent effect (mortality or growth inhibition) at 200 ppm [5] | mortality at 200 ppm [6]

CN(C(=O)c1cc(-c2cc(-c3c(C(F)(F)F)c(C(F)(F)C(F)(F)F)nn3C)no2)sc1C#N)C1(C#N)CC1 [Compound 17, 2-cyano-N-(1-cyanocyclopropyl)-N-methyl-5-[3-[2-methyl-5-(1,1,2,2,2-pentafluoroethyl)-4-(trifluoromethyl)pyrazol-3-yl]isoxazol-5-yl]thiophene-3-carboxamide]
≥ 80%: percent control (mortality, anti-feedant effect or growth inhibition) at 200 ppm [1] | percent effect (mortality or growth inhibition) at 200 ppm [2] | percent effect (mortality or growth inhibition) at 200 ppm [3] | mortality at 200 ppm [4] | percent effect (mortality or growth inhibition) at 200 ppm [5] | mortality at 200 ppm [6]
